Assay results as given in patent publication US20250236616A1, “IMMUNOMODULATING AZALIDES” (Zoetis Services LLC, priority 2021, published 2025).

Experiments:
Assay type in all cases: cell-based
IL-1β = assay: Whole bovine blood assay, LPS-induced IL-1β (inhibition / overstimulation); conditions: drug concentration giving overstimulation (OS) of LPS-induced IL-1β, top concentration 250 μM
Procedure: Whole Blood Assay-Fresh whole bovine blood samples were collected into heparinized vacutainer tubes. Assay plates were prepared with 25 μL of drug diluted in PBS at varying concentration in 96 round bottom wells, then 225 μL of blood was added and plates incubated at 37° C. for 4 hours. Cells were stimulated with LPS (or PBS for controls) by adding 25 μL to the plates at a final concentration of 1 μg/mL and incubated at 37° C. for 18 hours. To collect plasma, plates were centrifuged at 2,000×g for 10 minutes and 100 μL of supernatant was transferred to a 96 well polypropylene plate that was sealed and stored at −80° C. Samples were assayed for cytokines using the Meso Scale Discovery (MSD) platform (described below). This same MSD platform was used to assess cytokines in the plasma collected directly from drug treated animals.
Cytokine Detection—An MSD U-Plex cytokine assay was developed following the MSD U-Plex protocol guide and included biotinylated capture antibodies against: bovine Interleukin (IL)-1β (Biorad), bovine IL-6 (R&D Systems) and bovine tumor necrosis factor (TNF)-α (R&D Systems). The anti-IL-1β antibody was biotinylated using EZ-Link Sulfo-NHS-Biotin (Thermo Scientific) at a challenge ratio of 1:20 according to manufacturer instructions. Assay calibrators (Kingfisher) were diluted to a concentration of […] in control lithium heparin plasma, followed by 4-fold serial dilutions into plasma. The detection antibodies were sulfo-tagged following the MSD quick guide conjugation protocol using a challenge ratio of 1:20. Antibodies were used at the following concentrations: anti-IL-1β at 1 μg/mL, anti-IL-6 at 1 μg/mL and anti-TNF-α at 0.5 μg/mL. Cytokines were quantified according to manufacturer's instructions using a chemiluminescent readout. In brief, 0.5 mL of all biotinylated antibodies were diluted to 10 μg/mL with Diluent 100 and paired to their respective linkers by adding 750 μL of supplied Linker solution and incubated for 30 minutes followed by addition of Stop solution for another 30 minutes. The linked antibodies were then diluted 10-fold into Stop solution. Plates were coated by adding 50 μL of antibody solutions per well and incubated covered and shaking for 1 hour at room temperature. Plates were washed three times with PBS/Tween20 prior to samples or standards being added at 30 μL per well and incubated as above. Plates were washed three times before detection antibodies were added along with 2% goat and rabbit serum to block and incubated same as above. Plates were washed a further three times before addition of 150 μL 2X Read buffer and read immediately on the SI6000 instrument (MSD). For soluble protein levels, a BCA protein kit (Thermofisher) was used. The cytokine concentrations (pg/mL) were normalized to the total protein levels for each sample. [Bassel et. al., BMC Veterinary Research (2020) 16:168]
Therefore, a fresh whole bovine blood assay was developed with LPS as a stimulant (TLR-4 agonist) and with IL-1β and TNF-α as the read-out. Compounds of the invention were evaluated against a positive control for their ability to inhibit LPS-induced IL-1β and TNF-α as an overall evaluation of relative potency and modulation of target pathways.
For M9, the top dose of 500 μM was not high enough to determine an overstimulation of IL-1 B which was recorded as not applicable (n/a). The enhanced response indicates increased concentration of IL-1β cytokine at the drug concentration indicated. This is generally observed when compounds are out of range (high concentration) and stimulate a cellular toxicity signal. Further data supporting this hypothesis includes murine studies using a P. multocida infection in mice.
TNFα is a cell signaling protein, cytokine, that plays a key role in both acute and chronic inflammation. […]

TNF-α = assay: Whole bovine blood assay, LPS-induced TNF-α; conditions: fresh whole bovine blood, LPS stimulant; top drug concentration 250 μM
Procedure, shortened: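 Fresh heparinized bovine whole blood was preincubated with compound 4 h at 37 °C, then stimulated with LPS (final 1 μg/mL) for 18 h at 37 °C. Plasma TNF-α was quantified by MSD U-Plex chemiluminescent immunoassay, normalized to total protein (BCA), and IC50 taken for LPS-induced TNF-α inhibition.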

IL-6 = assay: Whole bovine blood assay, LPS-induced IL-6; conditions: fresh whole bovine blood, LPS stimulant; top drug concentration 250 μM

| Structure (SMILES) | IC50 (TNF-α) | IC50 (IL-6) | minimal effective concentration (IL-1β) |
| --- | --- | --- | --- |
| CC[C@H]1OC(=O)[C@H](C)[C@@H](O)[C@H](C)[C@@H](O[C@@H]2O[C@H](C)C[C@H](N(C)S(=O)(=O)c3ccc(N4CCOCC4)nc3)[C@H]2Oc2ccc(F)cc2)[C@](C)(O)C[C@@H](C)CN[C@H](C)[C@@H](O)[C@]1(C)O [Example A-21] | 16 µM | 16 µM | 16 µM |
| CC[C@H]1OC(=O)[C@H](C)[C@@H](O)[C@H](C)[C@@H](O[C@@H]2O[C@H](C)C[C@H](N(C)S(=O)(=O)c3cccs3)[C@H]2Oc2ccc(F)cc2)[C@](C)(O)C[C@@H](C)CN[C@H](C)[C@@H](O)[C@]1(C)O [Example A-22] | 30 µM | 22 µM | 16 µM |
| CC[C@H]1OC(=O)[C@H](C)[C@@H](O)[C@H](C)[C@@H](O[C@@H]2O[C@H](C)C[C@H](N(C)S(=O)(=O)c3ccccc3)[C@H]2Oc2ccc(F)cc2)[C@](C)(O)C[C@@H](C)CN[C@H](C)[C@@H](O)[C@]1(C)O [Example A-23] | 36 µM | 22 µM | 16 µM |
| CC[C@H]1OC(=O)[C@H](C)[C@@H](O)[C@H](C)[C@@H](O[C@@H]2O[C@H](C)C[C@H](N(C)S(=O)(=O)c3cc4ccccc4o3)[C@H]2Oc2ccc(F)cc2)[C@](C)(O)C[C@@H](C)CN[C@H](C)[C@@H](O)[C@]1(C)O [Example A-24] | 30 µM | 26 µM | 19 µM |
| CC[C@H]1OC(=O)[C@H](C)[C@@H](O)[C@H](C)[C@@H](O[C@@H]2O[C@H](C)C[C@H](N(C)S(=O)(=O)c3ccc(F)cc3)[C@H]2Oc2ccc(F)cc2)[C@](C)(O)C[C@@H](C)CN[C@H](C)[C@@H](O)[C@]1(C)O [Example A-25] | 75 µM | 28 µM | 16 µM |
| CC[C@H]1OC(=O)[C@H](C)[C@@H](O)[C@H](C)[C@@H](O[C@@H]2O[C@H](C)C[C@H](N(C)S(=O)(=O)c3nccn3C)[C@H]2Oc2ccc(F)cc2)[C@](C)(O)C[C@@H](C)CN[C@H](C)[C@@H](O)[C@]1(C)O [Example A-27] | 141 µM | 66 µM | 100 µM |
| CC[C@H]1OC(=O)[C@H](C)[C@@H](O)[C@H](C)[C@@H](O[C@@H]2O[C@H](C)C[C@H](N(C)S(=O)(=O)c3cnc4n3CCC4)[C@H]2Oc2ccc(F)cc2)[C@](C)(O)C[C@@H](C)CN[C@H](C)[C@@H](O)[C@]1(C)O [Example A-28] | > 250 µM | 120 µM | 81 µM |

Second part, led by results:

| IC50 (TNF-α) | IC50 (IL-6) | Structure (SMILES) | minimal effective concentration (IL-1β) |
| --- | --- | --- | --- |
| – | 13 µM | CC[C@H]1OC(=O)[C@H](C)[C@@H](O[C@H]2C[C@@](C)(OC)[C@](O)(CN3CCC3)[C@H](C)O2)[C@H](C)[C@@H](O[C@@H]2O[C@H](C)C[C@H](N(C)S(=O)(=O)c3ccc(Cl)cc3)[C@H]2O)[C@](C)(O)C[C@@H](C)CN[C@H](C)[C@@H](O)[C@]1(C)O [Example C-2] | 6 µM |
| – | 31 µM | CC[C@H]1OC(=O)[C@H](C)[C@@H](O[C@H]2C[C@@](C)(OC)[C@](O)(Cn3ccnc3)[C@H](C)O2)[C@H](C)[C@@H](O[C@@H]2O[C@H](C)C[C@H](N(C)S(=O)(=O)c3ccc(Cl)cc3)[C@H]2O)[C@](C)(O)C[C@@H](C)CN[C@H](C)[C@@H](O)[C@]1(C)O [Example C-5] | 16 µM |
| – | 24 µM | CC[C@H]1OC(=O)[C@H](C)[C@@H](O[C@H]2C[C@@](C)(OC)[C@](O)(CN3CCCCC3)[C@H](C)O2)[C@H](C)[C@@H](O[C@@H]2O[C@H](C)C[C@H](N(C)S(=O)(=O)Nc3ccccc3)[C@H]2O)[C@](C)(O)C[C@@H](C)CN(CC)[C@H](C)[C@@H](O)[C@]1(C)O [Example C-20] | 10 µM |
| – | 4 µM | CCCN([C@H]1C[C@@H](C)O[C@@H](O[C@@H]2[C@@H](C)[C@H](O[C@H]3C[C@@](C)(OC)[C@](O)(CN4CCCCC4)[C@H](C)O3)[C@@H](C)C(=O)O[C@H](CC)[C@@](C)(O)[C@H](O)[C@@H](C)NC[C@H](C)C[C@@]2(C)O)[C@@H]1O)S(=O)(=O)c1ccc(OC)cc1 [Example C-41] | >250 µM |
